pIC50: −log10 of the molar value.
Key:
[1] = target: T1, human recombinant HDAC1 (Homo sapiens, UniProt Q13547); experiment: HDAC enzyme activity inhibition assay (HDAC Fluorimetric Drug Discovery Kit), HDAC1; type: biochemical; conditions: human recombinant HDAC1, Fluor de Lys-SIRT1 substrate, 30° C. 60 minutes
T1 construct: purchased Enzo Life Sciences, Inc. BML-SE456
Summary of the method: (§1)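 The preceding reaction ran 60 min at 30 °C with 0.3 μg recombinant human enzyme, HDAC1 or HDAC6 under an identical protocol, and 10 μM Fluor de Lys-SIRT1 substrate, across 5-fold diluted compound.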

[2] = target: T2, human recombinant HDAC6 (Homo sapiens, UniProt Q9UBN7); experiment: HDAC enzyme activity inhibition assay (HDAC Fluorimetric Drug Discovery Kit), HDAC6; type: biochemical; conditions: for HDAC6 selectivity (fold): HDAC1 vs HDAC6; for pIC50: human recombinant HDAC6, same protocol as HDAC1
T2 construct: purchased Calbiochem Inc. 382180
T2 sequence (Q9UBN7 1-1215): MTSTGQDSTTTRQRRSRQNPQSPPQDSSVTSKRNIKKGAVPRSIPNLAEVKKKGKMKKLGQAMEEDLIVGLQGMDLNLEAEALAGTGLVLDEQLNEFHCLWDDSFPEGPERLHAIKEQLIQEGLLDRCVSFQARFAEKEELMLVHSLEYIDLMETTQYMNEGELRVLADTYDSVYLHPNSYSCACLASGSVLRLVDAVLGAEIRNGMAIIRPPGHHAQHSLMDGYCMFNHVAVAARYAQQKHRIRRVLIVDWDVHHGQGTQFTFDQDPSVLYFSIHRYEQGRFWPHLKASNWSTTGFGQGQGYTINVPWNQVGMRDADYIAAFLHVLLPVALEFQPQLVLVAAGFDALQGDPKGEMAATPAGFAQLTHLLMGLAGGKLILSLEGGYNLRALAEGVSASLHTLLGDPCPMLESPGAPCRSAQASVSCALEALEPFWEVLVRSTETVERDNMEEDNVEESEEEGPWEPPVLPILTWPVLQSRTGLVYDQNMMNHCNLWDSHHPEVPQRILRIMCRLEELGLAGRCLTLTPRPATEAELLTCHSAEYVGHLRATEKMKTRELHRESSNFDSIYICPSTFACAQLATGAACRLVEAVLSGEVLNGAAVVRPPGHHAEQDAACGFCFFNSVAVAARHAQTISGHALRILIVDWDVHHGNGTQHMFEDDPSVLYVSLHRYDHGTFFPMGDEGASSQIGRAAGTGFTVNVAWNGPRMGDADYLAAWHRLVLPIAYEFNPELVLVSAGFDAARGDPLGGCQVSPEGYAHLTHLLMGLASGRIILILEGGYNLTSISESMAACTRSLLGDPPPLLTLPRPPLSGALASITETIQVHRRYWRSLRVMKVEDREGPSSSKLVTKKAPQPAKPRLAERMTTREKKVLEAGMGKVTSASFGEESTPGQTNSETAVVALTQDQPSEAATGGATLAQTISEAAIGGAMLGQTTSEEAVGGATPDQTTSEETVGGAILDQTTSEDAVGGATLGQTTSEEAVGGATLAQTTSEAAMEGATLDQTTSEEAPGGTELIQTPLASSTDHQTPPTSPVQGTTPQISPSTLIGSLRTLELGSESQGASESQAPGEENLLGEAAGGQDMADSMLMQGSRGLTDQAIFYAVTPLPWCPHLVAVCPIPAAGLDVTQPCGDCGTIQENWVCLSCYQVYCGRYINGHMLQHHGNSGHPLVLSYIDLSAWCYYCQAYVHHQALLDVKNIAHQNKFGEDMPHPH
Summary of the method: as §1

T1 sequence (Q13547 whole entry): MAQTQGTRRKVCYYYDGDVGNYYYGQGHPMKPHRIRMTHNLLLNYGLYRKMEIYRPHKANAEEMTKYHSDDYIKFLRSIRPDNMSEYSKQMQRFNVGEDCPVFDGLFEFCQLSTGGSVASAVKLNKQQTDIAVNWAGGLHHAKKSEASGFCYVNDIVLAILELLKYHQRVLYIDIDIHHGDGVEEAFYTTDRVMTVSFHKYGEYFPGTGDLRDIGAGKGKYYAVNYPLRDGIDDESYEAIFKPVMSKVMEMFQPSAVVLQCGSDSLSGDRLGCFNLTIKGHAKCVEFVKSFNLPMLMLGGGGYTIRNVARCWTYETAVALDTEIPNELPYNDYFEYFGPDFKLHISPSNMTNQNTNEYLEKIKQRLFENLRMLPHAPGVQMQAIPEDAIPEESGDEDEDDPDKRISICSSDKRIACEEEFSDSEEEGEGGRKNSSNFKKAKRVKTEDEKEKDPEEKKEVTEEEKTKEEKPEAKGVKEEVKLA

| pIC50 [1] | HDAC6 selectivity (fold) [2] | pIC50 [2] | SMILES |
| --- | --- | --- | --- |
| < 4.30 | 1,543 fold | 7.49 | CC(C)CN1CC(F)(C(=O)N(Cc2ccc(-c3nnc(C(F)F)o3)cn2)c2cccc(F)c2)C1 [Compound 3093, N-((5-(5-(difluoromethyl)-1,3,4-oxadiazol-2-yl)pyridin-2-yl)methyl)-3-fluoro-N-(3-fluorophenyl)-1-isobutylazetidine-3-carboxamide] |
| < 4.30 | 2,066 fold | 7.62 | CCCC(=O)N1CC(F)(C(=O)N(Cc2ccc(-c3nnc(C(F)F)o3)cn2)c2cccc(F)c2)C1 [Compound 3165, 1-butyryl-N-((5-(5-(difluoromethyl)-1,3,4-oxadiazol-2-yl)pyridin-2-yl)methyl)-3-fluoro-N-(3-fluorophenyl)azetidine-3-carboxamide] |
| < 4.30 | 1,075 fold | 7.33 | CN1CC(F)(C(=O)N(Cc2ccc(-c3nnc(C(F)F)o3)cn2)c2ccccc2)C1 [Compound 2973, N-((5-(5-(difluoromethyl)-1,3,4-oxadiazol-2-yl)pyridin-2-yl)methyl)-3-fluoro-1-methyl-N-phenylazetidine-3-carboxamide] |
| < 4.30 | 2,155 fold | 7.63 | CCC(=O)N1CC(F)(C(=O)N(Cc2ccc(-c3nnc(C(F)F)o3)cn2)c2cccc(F)c2)C1 [Compound 3163, N-((5-(5-(difluoromethyl)-1,3,4-oxadiazol-2-yl)pyridin-2-yl)methyl)-3-fluoro-N-(3-fluorophenyl)-1-propionylazetidine-3-carboxamide] |
| < 4.30 | 325 fold | 6.81 | O=C(N1CC(F)(C(=O)N(Cc2ccc(-c3nnc(C(F)F)o3)cc2F)c2ccccc2)C1)C(F)(F)F [Compound 3435, N-(4-(5-(difluoromethyl)-1,3,4-oxadiazol-2-yl)-2-fluorobenzyl)-3-fluoro-N-phenyl-1-(2,2,2-trifluoroacetyl)azetidine-3-carboxamide] |
| < 4.30 | 1,400 fold | 7.45 | O=C(C1CC1)N1CC(F)(C(=O)N(Cc2ccc(-c3nnc(C(F)F)o3)cn2)c2ccccc2)C1 [Compound 3158, 1-(cyclopropanecarbonyl)-N-((5-(5-(difluoromethyl)-1,3,4-oxadiazol-2-yl)pyridin-2-yl)methyl)-3-fluoro-N-phenylazetidine-3-carboxamide] |
| < 4.30 | 624 fold | 7.10 | CCN1CC(F)(C(=O)N(Cc2ccc(-c3nnc(C(F)F)o3)cc2F)c2ccccc2)C1 [Compound 3430, N-(4-(5-(difluoromethyl)-1,3,4-oxadiazol-2-yl)-2-fluorobenzyl)-1-ethyl-3-fluoro-N-phenylazetidine-3-carboxamide] |
| < 4.30 | 378 fold | 6.88 | CS(=O)(=O)N1CC(F)(C(=O)N(Cc2ccc(-c3nnc(C(F)F)o3)cc2F)c2ccccc2)C1 [Compound 3436, N-(4-(5-(difluoromethyl)-1,3,4-oxadiazol-2-yl)-2-fluorobenzyl)-3-fluoro-1-(methylsulfonyl)-N-phenylazetidine-3-carboxamide] |
| < 4.30 | 1,272 fold | 7.41 | CCN1CC(N2CC(F)(C(=O)N(Cc3ccc(-c4nnc(C(F)F)o4)cn3)c3cccc(F)c3)C2)C1 [Compound 3220, N-((5-(5-(difluoromethyl)-1,3,4-oxadiazol-2-yl)pyridin-2-yl)methyl)-1′-ethyl-3-fluoro-N-(3-fluorophenyl)-[1,3′-biazetidine]-3-carboxamide] |
| < 4.30 | 1,298 fold | 7.41 | CN1CCC(F)(C(=O)N(Cc2ccc(-c3nnc(C(F)F)o3)cn2)c2cccc(F)c2)CC1 [Compound 2969, N-((5-(5-(difluoromethyl)-1,3,4-oxadiazol-2-yl)pyridin-2-yl)methyl)-4-fluoro-N-(3-fluorophenyl)-1-methylpiperidine-4-carboxamide] |
